Laboratory results as given in patent US9125406B2, “Methods and compositions for control of cabbage looper, trichoplusia ni” (Simon Fraser University, priority 2008, dated 2015).
Where two headings read alike, the source gives them in different places. Marks after values point to notes of the source that are not given here.

Legend:
[1] = tested on: third instar T. ni larvae; assay: Leaf disk choice feeding deterrence bioassay; format: in vivo, Trichoplusia ni; details: for pest or weed control at 50 µg/cm2, 50 µg/cm2 / pest or weed control at 50 µg/cm2: Trichoplusia, foliar; for pest or weed control at 50 µg/cm2: feeding deterrence (FD), Table 12, non-toxic feeding deterrents, read-out: % deterrence; for DC50: feeding deterrence DC50, unit not given in Table 12
Excerpt: Cabbage plants (Brassica oleraceae var. Stonehead) used in the bioassays were routinely grown in plastic pots with a mixture of sandy loam soil and peat moss (4:1) in a greenhouse at the University of British Columbia, Vancouver, BC, Canada. Leaves were collected from cabbage plants that were 5-6 weeks old.
T. ni larvae and moths were obtained from a long established colony (>50 generations) maintained on an artificial diet, Velvetbean Caterpillar Diet No. F9796 [Bio-Sery Inc. (Frenchtown, NIL)] in the insectary of the University of British Columbia (UBC).
(§1) Initial screening for feeding deterrent effects was conducted at 50 μg/cm^2 in feeding deterrent bioassays.
Larvae were given the choice of feeding on two leaf disks, one treated with 10 μL of a solution of the test substance painted on each side and the other treated with a carrier solvent alone. The number of larvae was 25 per treatment.
Feeding deterrence data (percent) for initial screening concentration were analyzed by analysis of variance (ANOVA) after arcsin transformation using statistics software (Statistix 7. Analytical Software, Statistix 7 for Windows 95, 98, NT, 2000. Analytical Software, Tallahassee).

[2] = tested on: third instar T. ni larvae; assay: whole plant or invertebrate; details: for mortality at 0.25 %: Trichoplusia, topical, 24 h
Experimental: as §1
Mortality was determined 24 h after spraying larvae directly with test solutions. Third instar T. ni larvae were sprayed in 90 mm×15 mm Petri dishes (Falcon) lined with Fisher Scientific filter paper (90 mm diameter). Small plastic hand spraying bottles (50 mL capacity) were used. Larvae were then transferred to Petri dishes (90 mm×15 mm) with a small piece of artificial diet. Each Petri dish contained 10 larvae. Three replicates, each consisting of 10 larvae, were used per treatment.

T. ni moths [3] = assay: Oviposition choice (deterrence) bioassay on cabbage leaves; format: in vivo, Trichoplusia ni; details: for % deterrence / Index = deterrence/mortality: Table 11; for % deterrence: BL mark not explained; for Index = deterrence/mortality: oviposition deterrence divided by mortality; for pest or weed control at 0.25 %: Trichoplusia, read-out: OD (%), mean ± SE (n = 25-33)
Experimental: as §1
T. ni larvae were reared on normal diet from neonates (<24 h old) until pupation. Pupae were sexed and put in separate plastic containers until emergence. After eclosion, pairs of moths (one male and one female) were introduced into each cage with a control and a treated cabbage leaf. Pairs of moths (n=25) were used per treatment. Each leaf (approximately 100-110 cm^2) was sprayed with 0.5 mL of MeOH or a methanolic solution of the test chemical on each side. Eggs were counted on each cabbage leaf after 48 h.

T. ni moths [4] = assay: as above; format: in vivo, Trichoplusia ni; details: Trichoplusia, 48 h, Table 8; at 0.25%; read-out: OD (%) Mean ± SE N = 35-40
[5] = Table 4, 1,3-dialkoxybenzenes, feeding deterrence at 50 μg/cm^2, read-out: FD (%), mean (SE (n = 25))
[6] = Table 3, 1,4-dialkoxybenzenes, feeding deterrence at 50 μg/cm^2, read-out: FD (%), mean ± SE (n = 25)
[7] = oviposition deterrence at 0.25%
[8] = read-out: Mortality (%) N = 3 × 10, Table 8, at 0.25%
[9] = contact toxicity to larvae, negative or zero values replaced by 0.1 for the index (footnote b)
[10] = Table 8, 50 μg/cm^2, read-out: F.D (%) Mean ± SE N = 25
[11] = read-out: mortality (%) (n = 3 × 10), Table 3, at 0.25%
[12] = 48 h, Table 3, oviposition deterrence at 0.25%, 48 h
[13] = Table 5, 1,2-dialkoxybenzenes, feeding deterrence at 50 μg/cm^2, read-out: FD (%), mean ± SE (n = 25)
[14] = read-out: mortality (%) (n = 3 × 10), Table 5, at 0.25%
[15] = 48 h, Table 5, oviposition deterrence at 0.25%, 48 h
[16] = Table 3, 1,4-dialkoxybenzenes, feeding deterrence at 50 μg/cm^2

COc1cccc(OC)c1 [3b{1,1}, 1,3-Dimethoxy benzene]
pest or weed control at 50 µg/cm2, 50 µg/cm2 [1, 5]: 20.4 ± 19.1%

CC(C)CCOc1ccc(O)cc1 [2c{5}, 4-(3-Methyl-butyloxy)phenol]
pest or weed control at 50 µg/cm2, 50 µg/cm2 [1, 6]: 29.5 ± 16.6%

butyl eugenol
% mortality ([2]; in vivo): 15%
% deterrence (T. ni moths [3]; [7]): 34 BL %
Index = deterrence/mortality (T. ni moths [3]): 2.2

C=CCOc1ccccc1OCCC [3a{3, 6}, 1-allyloxy-2-propoxybenzene]
mortality at 0.25 % [2, 8]: 17%
% mortality [2, 9]: 10-17 ^a %
pest or weed control at 50 µg/cm2, 50 µg/cm2 [1, 10]: 96 ± 3%
pest or weed control at 50 µg/cm2 [1]: 96%
DC50 [1]: 12-16 ^a μg/cm^2

CCOc1ccc(OCC)cc1 [3c{2, 2}, 1,4-Diethoxy benzene]
LC50 ([2]; Table 3, concentration causing 50% mortality compared with the control): 0.03%
% mortality ([2]; Table 11, at 0.25%): 100%
mortality at 0.25 % [2, 11]: 100%
% mortality [2, 9]: 100%
OD (%), mean ± SE (n = 25-33) (T. ni moths [3]; Table 3, oviposition deterrence at 0.25%, 48 h): 74.7 ± 13.3a %
% deterrence (T. ni moths [3]; [7]): 75%
Index = deterrence/mortality (T. ni moths [3]): 0.75
pest or weed control at 0.25 % (T. ni moths [3]; [12]): 74.7%
pest or weed control at 50 µg/cm2, 50 µg/cm2 [1, 6]: 80.8 ± 11.3%
pest or weed control at 50 µg/cm2 [1]: 81%
DC50 [1]: 26 μg/cm^2

CCCOc1cccc(OCCC)c1 [drawing 18]
Oviposition deterrency (T. ni moths [3]; Table 6 summary class, 0.25%): moderate (moderate, >25%)
Feeding deterrency ([1]; Table 6 summary class, 50 μg/cm^2): strong (Strong feeding deterrency, >80%)

CCCCOc1ccccc1O [2a{4}, 2-Butoxy phenol]
pest or weed control at 50 µg/cm2, 50 µg/cm2 [1, 13]: 12 ± 20.3%

C=CCOc1cccc(OCCC(C)C)c1 [3b{5, 6}, 1-allyloxy-3-isopentoxybenzene]
pest or weed control at 0.25 % (T. ni moths [4]): 10 ± 13%

CC(C)CCOc1cccc(O)c1 [2b{4}, 3-(3-Methyl-butyloxy)phenol]
pest or weed control at 50 µg/cm2, 50 µg/cm2 [1, 5]: -5.8 ± 18.7%

C=CCOc1ccccc1OCC=C [3a{6,6}, 1,2-Diallyloxy benzene]
mortality at 0.25 % [2, 14]: 20%
pest or weed control at 0.25 % (T. ni moths [3]; [15]): 15%
pest or weed control at 50 µg/cm2, 50 µg/cm2 [1, 13]: 70.4 ± 13.2%

CC(C)CCOc1ccccc1OCCC(C)C [3a{5,5}, 1,2-Di-(3-methyl-butyloxy)benzene]
mortality at 0.25 % [2, 14]: 40%
pest or weed control at 0.25 % (T. ni moths [3]; [15]): 11.5%
pest or weed control at 50 µg/cm2, 50 µg/cm2 [1, 13]: 69.9 ± 11.5%

C=CCOc1ccccc1OCCC(C)C [3a{5, 6}, 1-allyloxy-2-isopentoxybenzene]
pest or weed control at 0.25 % (T. ni moths [4]): 26 ± 13.5%

CCCOc1cccc(OCCC)c1 [3b{3,3}, 1,3-Dipropoxy benzene]
LC50 ([2]; Table 4, concentration causing 50% mortality): 0.16%
mortality at 0.25 % ([2]; read-out: mortality (%) (n = 3 × 10), Table 4, at 0.25%): 76.7%
% mortality [2, 9]: 77%
pest or weed control at 0.25 % (T. ni moths [3]; 48 h, Table 4, oviposition deterrence at 0.25%, 48 h): 33%
pest or weed control at 50 µg/cm2, 50 µg/cm2 [1, 5]: 96.9 ± 3.1%
pest or weed control at 50 µg/cm2 [1]: 97%
DC50 [1]: 27 μg/cm^2

CC(C)CCOc1cccc(OCCC(C)C)c1 [3b{5,5}, 1,3-Di-(3-methyl-butyloxy)benzene]
pest or weed control at 50 µg/cm2, 50 µg/cm2 [1, 5]: -12.2 ± 18.8%

C=CCOc1ccccc1O [2a{6}, 2-Allyloxy phenol]
pest or weed control at 50 µg/cm2, 50 µg/cm2 [1, 13]: 31.1 ± 15.5%

CCCOc1ccccc1OCCC [3a{3,3}, 1,2-Dipropoxy benzene]
pest or weed control at 50 µg/cm2, 50 µg/cm2 [1, 13]: 26.2 ± 17.6%

CCOc1ccc(O)cc1 [2c{2}, 4-Ethoxy phenol]
FD (%), mean ± SE (n = 25) [1, 16]: weak feeding deterrent
pest or weed control at 50 µg/cm2, 50 µg/cm2 [1, 6]: 29.8 ± 18.2%

CCOc1ccccc1O [2a{2}, 2-Ethoxy phenol]
pest or weed control at 50 µg/cm2, 50 µg/cm2 [1, 13]: -5.3%

C=CCOc1ccc(OCCCC)cc1 [3c{6,4}, 1-allyloxy-4-butoxy benzene]
mortality at 0.25 % [2, 11]: 10%
pest or weed control at 0.25 % (T. ni moths [3]; [12]): 16.8 ± 13.8%
pest or weed control at 50 µg/cm2, 50 µg/cm2 [1, 6]: 84 ± 10.7%

CCCOc1ccc(O)cc1 [2c{3}, 4-Propoxy phenol]
FD (%), mean ± SE (n = 25) [1, 16]: feeding stimulants
pest or weed control at 50 µg/cm2, 50 µg/cm2 [1, 6]: -28 ± 18.4%

C=CCOc1ccc(OC)cc1 [3c{1, 6}, 1-allyloxy-4-methoxybenzene]
mortality at 0.25 % [2, 8]: 6%
pest or weed control at 50 µg/cm2, 50 µg/cm2 [1, 10]: 62 ± 15%
